We go through 1 compound from article PMC8464955, “Prediction of Drug–Drug Interaction Potential of Tegoprazan Using Physiologically Based Pharmacokinetic Modeling and Simulation” (Pharmaceutics, 2021).

Molecules are shown by their SMILES.

This data set concerns CYP3A4. Kind of data set: Inhibition of tegoprazan metabolism in human liver microsomes by CYP inhibitors. Type of data set: in vitro ADME. The following applies: in-house data. From the text: The major metabolic pathway of tegoprazan is the liver, and a negligible amount is excreted by urine. Both in vitro and clinical results have elucidated that tegoprazan is a potential substrate of cytochrome P450 (CYP) 3A4. […] According to the label of tegoprazan, systemic exposure to tegoprazan increases when tegoprazan is co-administered with clarithromycin. Based on the in vitro and clinical data, it can be inferred that drug–drug interaction (DDI) between tegoprazan and CYP3A4 inhibitor may occur. However, the clinical DDI studies of tegoprazan conducted so far have been limited to the DDI between tegoprazan and clarithromycin or clarithromycin and amoxicillin, because tegoprazan is likely to be administered with these medications for Helicobacter pylori eradication. Considering the substantial prevalence of acid-related diseases, tegoprazan is likely to be administered in combination with various drugs. […]
The elimination of the PBPK model consisted of enzyme kinetic and renal clearance (Table 1). Intrinsic clearances (CLint) of tegoprazan by various CYPs were determined by an in vitro study that measured the fraction of CLint inhibited by adding the inhibitors of CYP1A2, CYP2C9, CYP2C19, CYP2D6, and CYP3A to human liver microsomes (in-house data). […]

`CC(=O)N1CCN(c2ccc(OCC3COC(Cn4ccnc4)(c4ccc(Cl)cc4Cl)O3)cc2)CC1` (stereo not shown) [ketoconazole]: the “effect of CYP inhibitor on the metabolism of tegoprazan” value is on record as “significantly inhibited”.
